In the test the target is T1, Proteasome subunit beta type-5 (Homo sapiens, UniProt P28074).
T1 sequence (P28074 whole entry): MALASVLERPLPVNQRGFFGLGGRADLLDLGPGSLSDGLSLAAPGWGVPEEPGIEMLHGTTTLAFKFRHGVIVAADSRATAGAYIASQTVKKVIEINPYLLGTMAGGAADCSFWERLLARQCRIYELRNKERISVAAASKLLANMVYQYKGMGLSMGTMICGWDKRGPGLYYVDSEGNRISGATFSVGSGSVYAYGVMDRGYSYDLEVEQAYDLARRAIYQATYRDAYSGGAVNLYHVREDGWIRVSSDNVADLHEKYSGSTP
In words: Proteasome Inhibitory Activity. The source says: The proteasome used in the present invention is human erythrocyte 20S proteasome, and the enzyme, fluorescent substrate and test buffer are all purchased from Enzo.

As to `CSC[C@H](NC(=O)c1cc(Cl)ccc1Cl)C(=O)N[C@@H](CC(C)C)B(O)O` [US11542283, Compound IV-9], half-maximal inhibition (IC50) was put at 4.86 nM.

`CC(C)C[C@H](NC(=O)CNC(=O)c1cc(Cl)ccc1Cl)B1OC(=O)CC(CC(=O)O)(C(=O)O)O1` (some centres not stated) [US11542283, Compound MLN-9708]: the IC50 amounted to 7.47 nM.

The term IC50 denotes the concentration that gives 50% inhibition. Lower therefore signals greater potency in that assay.

The record behind these values is BindingDB's records for patent US11542283 (Jiangsu Chia Tai Fenghai Pharmaceutical, 2023).
